Reference: patent US7001756B1, “Microorganism strain of GM-020 of Lactobacillus rhamnosus and its use for treating obesity” (GenMont Biotech Inc., priority 2004, dated 2006)

Legend:
[1] = Obesity model: liver concentration of fat metabolites; assay type: in vivo, ICR mice; settings: right lobe of liver; 4 weeks treatment; GM-020 10^9 CFU/mL or PPA 4.875 mg each time, twice a day
Description: (§1) Food and water were supplemented sufficiently. The mice were divided into two groups. […] The mice's body weights were measured every week.
(§2) The treatments were administrated twice a day.
Liver concentration of fat metabolites: The mice were sacrificed, and the right lobe of liver was taken. The fat was extract according to the conventional method.
For each sample, the concentration of triacylglycol (TG) and total cholesterol (CHOL) were assayed as mentioned above.

[2] = Obesity model: body weight of ICR mice on high energy diet; assay type: in vivo; settings: GM-020 10^9 CFU/mL or PPA 4.875 mg each time, twice a day
Description: as §1, §2
Body weight difference: After treated for 4 weeks, blood samples were collected from the tails for biochemical assay.

[3] = Liver and kidney function assays (serum GOT, GPT, creatinine, uric acid); settings: 4 weeks treatment, GM-020 10^9 CFU/mL or PPA 4.875 mg each time, twice a day
Description: Animal model: Male ICR mice were purchased from National Laboratory Animal Center in Taiwan and raised alone in light for 12 hours and in dark for 12 hours at a temperature of 25±1° C. and a humidity of 60±5%. Food and water were supplemented sufficiently. The mice were divided into two groups. One was normal control group and the other was high energy group. The normal control group was fed with normal diet, and the high energy group was fed with high energy diet containing 48% dry feeding stuff, 8% corn oil and 44% condensed milk. The mice's body weights were measured every week. The high energy group was further divided into groups as listed below according treatment: (a) 1× of wood ear, (b) 1× of wood ear combined with GM-020, (c) GM-020, (d) 10× of wood ear, (e) 10× of wood ear combined with GM-020, (f) negative control treated with normal saline, and (g) positive control treated with PPA.
Treatment with GM-020 and/or wood ear: The normal control group was fed with normal diet continuously. The treatments were administrated twice a day. The dosage of PPA was 4.875 mg each time. In the meal of 1× of wood ear, there was 15.6 mg of wood ear in 3 g diet, and in the meal of 10× of wood ear, there is 156 mg of wood ear in 3 g diet. The dosage of GM-020 was 10^9 CFU/mL.
Liver and kidney function assays: The blood samples were treated as described above.
For each sample, the concentration of creatinine was assayed according to Jaffe Reaction method (Unichem®, Japan) and the absorption was measured with Autoanalyzer Hitachi™ 7150. The concentration of GOT was assayed with GOT (ASAT) IFCC mod™. (HUMAN®, Germany) and the absorption was measured with Autoanalyzer Hitachi™ 7150. The concentration of GPT was assayed with GPT (ALAT) IFCC mod™. (HUMAN®, Germany) and the absorption was measured with Autoanalyzer Hitachi™ 7150. The concentration of uric acid (UA) was assayed according to uricase-peroxidase method (Unichem®, Japan) and the absorption was measured with Autoanalyzer Hitachi™ 7150.
The data were analyzed with Kruskal Wallis H Test, and that of the normal control group was taken as a baseline for Dunnett Test.

[4] = Obesity model: lipid tissue weight around the testicle and the kidney; assay type: in vivo, ICR mice; settings: after 4 weeks treatment; GM-020 10^9 CFU/mL or PPA 4.875 mg each time, twice a day
Description: as §1, §2
Differences of lipid tissue weight around the testicle: The mice were sacrificed, and the lipid tissues around the testicle were taken and weighted.
Differences of lipid tissue weight around the kidney: The mice were sacrificed, and the lipid tissues around the kidney were taken and weighted.

[5] = Obesity model: serum concentration of fat metabolites; assay type: in vivo, ICR mice; settings: 4 weeks treatment, GM-020 10^9 CFU/mL or PPA 4.875 mg each time, twice a day
Description: as §1, §2
Serum concentration of fat metabolites: Blood samples were collected from the tails for biochemical assay. The blood samples were stayed at room temperature for 1 hour and centrifuged at 2,500 rpm for 10 minutes. The upper layer of serum was taken for assay.
The concentration of triacylglycol (TG) of each group was assayed with TRI[…] LIQUID REAGENT™ (ASK®, Taiwan) and the absorption was measured with Autoanalyzer Hitachi™ 7150. The concentration of total cholesterol (CHOL) was assayed with C[…] REAGENT™ (ASK®, Taiwan), and the absorption was measured with Autoanalyzer Hitachi™ 7150.

SMILES: CC(N)C(O)c1ccccc1 (centres unmarked) [Positive Control, phenylpropanolamine]
- CHOL (liver concentration of total cholesterol) [1]: 26.75 ± 1.48
- TG (liver concentration of triacylglycol) [1]: 103.58 ± 11.41
- body weight compared with the negative control group ([2]; after 2 weeks): significant decrease
- body weight compared with the negative control group ([2]; after 3 weeks): significant decrease
- Creatinine [3]: 0.56 ± 0.03
- GOT [3]: 117.50 ± 12.95
- GPT [3]: 47.00 ± 6.17
- UA (uric acid) [3]: 2.42 ± 0.50
- lipid tissue weight around the kidney compared with the negative control group [4]: little difference
- lipid tissue weight around the testicle compared with the negative control group [4]: significant decrease
- CHOL (serum concentration of total cholesterol) [5]: 219.08 ± 11.22
- HDL (serum concentration of HDL-C) [5]: 123.19 ± 4.20
- LDL (serum concentration of LDL-C) [5]: 10.04 ± 0.93
- TG (serum concentration of triacylglycol) [5]: 75.83 ± 9.93
